{"source": "patent US20210386829A1", "about": "“COMPOSITIONS AND METHODS FOR MODULATING CGRP SIGNALING TO REGULATE INNATE LYMPHOID CELL INFLAMMATORY RESPONSES” (The Broad Institute, Inc., priority 2018, published 2021)", "tested_on": "inflammatory ILC2s (ST2-KLRG1+ ILCs; iILC2s)", "experiment": "culture of sort-purified inflammatory ILC2s (iILC2s) with IL-33 or IL-25 with or without CGRP, qPCR", "type": "cell-based, mouse", "conditions": "IL-33 or IL-25 with vs without CGRP, 6 hours", "experimental": "Isolation of lung cells for fluorescence-activated cell sorting. Mice were euthanized and perfused with 8 ml cold PBS via the right heart ventricle. Lung lobes were removed from the chest cavity and transferred into gentleMACS C tubes containing Buffer S and enzymes A and D from the lung dissociation kit (Cat #130-095-927; Miltenyi Biotec). After manual dissociation of the tissue by running program lung_01 of the automated tissue dissociator (gentleMACS; Miltenyi Biotec), and digestion at 37° C. for 25 min on a rotator, the tissue pieces were further dissociated by running program lung_02 of the automated tissue dissociator. Subsequently, the single-cell suspension was passed through a 70 um cell strainer and washed with DPBS (Cat #14190-144; Thermo Fisher Scientific) containing 0.5% bovine serum albumin (Cat #BP1600-1; Fisher Scientific) and 2 mM EDTA. After incubation of the cells with CD90.2 MicroBeads (Cat #130-049-101; Miltenyi Biotec) on ice for 17 min, cells were washed and transferred onto LS columns (Cat #130-042-401; Miltenyi Biotec) to enrich for CD90.2-positive cells by positive selection. […] Cells were purified by fluorescence-activated cell sorting using a BD FACS Aria IIIu flow cytometer with 3 lasers (405 nm, 488 nm, 640 nm) or 4 lasers (405 nm, 488 nm, 561 nm and 640 nm) (BD Biosciences). […]"}
{"substance": "CGRP: neuropeptide calcitonin gene-related peptide (encoded by Calca), ligand of the Ramp1/Calcrl receptor; given at 100 nM in vitro, 6.65 ug nasally", "values": [{"measurement": "Il5 and Il13 expression in iILC2s", "result": "no differences"}]}
